We go through 8 compounds from US20250270246A1, “LINCOSAMIDES AND USES THEREOF” (President and Fellows of Harvard College, priority 2022, published 2025).

Counter-ions that a name gives are not always drawn. Like-named read-outs stand apart in the source and are kept apart here.

Common to all, as to test: MIC by broth microdilution (CLSI)
What all share (format): cell-based
Background: In broth dilution the organism is exposed to a series of concentrations in liquid medium.

Assay [1] deals with A. baumannii ATCC 19606 (HAV#010). Conditions: HAV#010, ATCC 19606, CaMHB, 24 h incubation; for MIC: Acinetobacter baumannii, ATCC19606, 24 h, read-out: MIC A. baumannii ATCC 19606. The procedure: (§1) Minimum inhibitory concentrations (MICs) were determined by the broth microdilution method following the Clinical and Laboratory Standards Institute (CLSI) guidelines. Test organisms consisted of standard reference strains from the American Type Culture Collection (ATCC; Manassa, VA, USA) and clinical isolates obtained from JMI Laboratories Inc. (North Liberty, IA, USA), Micromyx repository (MMX; Kalamazoo, MI, USA), and Massachusetts Eye and Ear Hospital (Boston, USA). Before the start of the MIC experiment, standard and test compound stock solutions were prepared in dimethyl sulfoxide (DMSO, Aldrich D2650) at a stock concentration of 2,560 μg/mL. The compound concentration range typically employed for each experiment was 64-0.06 μg/mL (2.5% final DMSO concentration). Iboxamycin was used as a comparator in all experiments. All bacterial strains were sub-cultured on blood agar plates (tryptic soy agar with 5% sheep blood, Hardy Diagnostics) and incubated overnight at 35° C. Organisms were suspended in cation-adjusted Mueller-Hinton broth (CaMHB, BD 212322) and optical density was adjusted to 0.5 McFarland standard. Suspensions were further diluted to obtain a final inoculum of 5×10^5 CFU/mL for broth microdilution experiments. The minimum concentration of compound required to inhibit visible bacterial growth after 24 h of incubation was recorded as the MIC in μg/mL. MICs for P. aeruginosa were recorded in cation-adjusted Mueller-Hinton broth which had been pre-treated with Chelex 100 ion exchange resin according to procedures reported in Ito et al. Antimicrob Agents Chemother (2016) 60 (12), 7396-7401.

Assay [2] relates to E. coli ATCC 25922 (HAV#006). Conditions: for MIC: Escherichia coli, ATCC25922, 24 h, read-out: MIC E. coli ATCC 25922. As for the experimental part: as §1
The subject of assay [3] is E. coli lptD mutant. Conditions: CaMHB, 24 h incubation; for MIC: Escherichia coli, 24 h, read-out: MIC E. coli lptD mutant, lptD mutant / ΔlptD mutant. The procedure: as §1
For assay [4], the system named is E. faecalis ATCC 29212 (HAV#005). Conditions: for MIC: Enterococcus faecalis, ATCC29212, 24 h, read-out: MIC E. faecalis ATCC 29212. As for the experimental part:
as §1

Assay [5] has as its system E. faecium JMI-990536. Conditions: JMI-990536, CaMHB, 24 h incubation; for MIC: Enterococcus faecium, JMI990536, 24 h, read-out: MIC E. faecium JMI-990536. As for the experimental part: as §1
Assay [6] has as its system K. pneumoniae JMI-991193. The conditions noted are these: Klebsiella pneumoniae, JMI991193, 24 h, read-out: MIC K. pneumoniae JMI-991193. As for the experimental part:
as §1

Assay [7] concerns S. aureus ATCC 29213 (HAV#001). Conditions: for MIC: Staphylococcus aureus, ATCC29213, 24 h, read-out: MIC S. aureus ATCC 29213. The procedure: as §1
Assay [8] has as its system S. aureus Clinical (cfr). The conditions noted are these: for MIC: Staphylococcus aureus, 24 h, read-out: MIC S. aureus Clinical (cfr). As for the experimental part: as §1
In assay [9] the test system is S. aureus MMX 3035. The conditions noted are these: for MIC: Staphylococcus aureus, MMX3035, 24 h, read-out: MIC S. aureus MMX 3035. As for the experimental part:
as §1

Assay [10] has as its system E. coli ΔtolC. Conditions: CaMHB, 24 h incubation; for MIC: Escherichia coli, 24 h, read-out: MIC E. coli ΔtolC, ΔtolC. The procedure:
as §1

The mark [11] stands for this setting: HAV#006, ATCC 25922, CaMHB, 24 h incubation.
Where [12] appears, read: HAV#005, ATCC 29212, CaMHB, 24 h incubation.
[13] abbreviates: JMI-991193, CaMHB, 24 h incubation.
The mark [14] stands for this setting: HAV#001, ATCC 29213, CaMHB, 24 h incubation.
Where [15] appears, read: Clinical (cfr), CaMHB, 24 h incubation.
[16] abbreviates: MMX 3035, CaMHB, 24 h incubation.

`CC(C)C[C@@H]1CCO[C@@H]2[C@H](CN[C@@H]2C(=O)N[C@@H]2C/C=C/[C@@H](CO)CSC3O[C@H]2C(O)C(O)[C@H]3O)C1` (single isomer, unassigned) [FSA1608025A, formate salt]: the MIC is above 64 µg/mL in assay [1]; 32 µg/mL in [2] (setting [11]); 8 µg/mL in assay [3]; 4 µg/mL in assay [4] (setting [12]); 8 µg/mL in [5]; above 64 µg/mL in [6] (setting [13]). Besides, the figures for the MIC in assay [7] (setting [14]), in assay [8] (setting [15]) and in assay [9] (setting [16]) were 4 µg/mL, 64 µg/mL and 64 µg/mL, respectively.
Consider `CC(C)C[C@@H]1CCO[C@@H]2[C@H](CN[C@@H]2C(=O)N[C@@H]2C/C=C/[C@H](CO)CSC3O[C@H]2C(O)C(O)[C@H]3O)C1` (single isomer, unassigned) [FSA1608025B, formate salt], for which the MIC in [1] was above 64 µg/mL; in assay [2] (setting [11]), above 64 µg/mL; in assay [3], above 64 µg/mL; in assay [10], above 64 µg/mL; in assay [4] (setting [12]), 32 µg/mL; in assay [5] it was 32 µg/mL. In addition, the MIC is above 64 µg/mL in [6] (setting [13]), 32 µg/mL in [7] (setting [14]), above 64 µg/mL in assay [8] (setting [15]) and above 64 µg/mL in assay [9] (setting [16]).
For `CC(C)C[C@@H]1CCO[C@@H]2[C@H](CN[C@@H]2C(=O)N[C@@H]2C(C)/C=C/CCCSC3OC2C(O)C(O)C3O)C1` (stereo in doubt) [FSA1609094, (4S,5aS,8S,8aR)-4-isobutyl-N-((1R,8S,9R,10R,11R,12S,13R,E)-11,12,13-trihydroxy-8-methyl-14-oxa-2-thiabicyclo[8.3.1]tetradec-6-en-9-yl) octahydro-2H-oxepino[2,3-c]pyrrole-8-carboxamide formate salt], the “MIC A. baumannii ATCC 19606” value in assay [1] (formate salt) is above 32 µg/mL. For the same compound, the “MIC E. coli ATCC 25922” value in assay [2] (HAV#006, ATCC 25922, CaMHB, 24 h incubation, formate salt) is above 32 µg/mL. For the same compound, the “MIC E. coli lptD mutant” value in [3] (lptD mutant / ΔlptD mutant, formate salt) came out at 32 µg/mL. Also, the “MIC E. coli ΔtolC” value in [10] (ΔtolC, formate salt) was 32 µg/mL. In addition, the “MIC E. faecalis ATCC 29212” value in assay [4] (HAV#005, ATCC 29212, CaMHB, 24 h incubation, formate salt) is 2 µg/mL. Further, the “MIC E. faecium JMI-990536” value in [5] (formate salt) was above 32 µg/mL. The MIC in [6] (setting [13]) was above 32 µg/mL. In addition, in [7] (HAV#001, ATCC 29213, CaMHB, 24 h incubation, formate salt), the “MIC S. aureus ATCC 29213” value came to 0.25 µg/mL. The “MIC S. aureus Clinical (cfr)” value in assay [8] (Clinical (cfr), CaMHB, 24 h incubation, formate salt) was above 32 µg/mL. Also, the “MIC S. aureus MMX 3035” value in assay [9] (MMX 3035, CaMHB, 24 h incubation, formate salt) is above 32 µg/mL.
As for `CC(C)C[C@@H]1CCO[C@@H]2[C@H](CN[C@@H]2C(=O)N[C@@H]2C/C=C/[C@@H](O)CS[C@H]3O[C@H]2[C@H](O)[C@H](O)[C@H]3O)C1` [FSA1608016, (4S,5aS,8S,8aR)-4-isobutyl-N-((1R,4R,8R,9R,10R,11S,12R,E)-4,10,11,12-tetrahydroxy-13-oxa-2-thiabicyclo[7.3.1]tridec-5-en-8-yl) octahydro-2H-oxepino[2,3-c]pyrrole-8-carboxamide formate salt], the MIC was above 64 µg/mL in [1]; 64 µg/mL in assay [2] (setting [11]); 8 µg/mL in [3]; 8 µg/mL in assay [4] (setting [12]); 8 µg/mL in [5]; above 64 µg/mL in [6] (setting [13]). Moreover, the MIC was 8 µg/mL in assay [7] (setting [14]), above 64 µg/mL in [8] (setting [15]) and above 64 µg/mL in assay [9] (setting [16]).
As to `CC(C)C[C@@H]1CCO[C@@H]2[C@H](CN[C@@H]2C(=O)N[C@@H]2C/C=C\[C@@H](CO)CS[C@H]3O[C@H]2[C@H](O)[C@H](O)[C@H]3O)C1` [FSA1608024, (4S,5aS,8S,8aR)-4-isobutyl-N-((1R,4S,8R,9R,10R,11S,12R,Z)-10,11,12-trihydroxy-4-(hydroxymethyl)-13-oxa-2-thiabicyclo[7.3.1]tridec-5-en-8-yl) octahydro-2H-oxepino[2,3-c]pyrrole-8-carboxamide formate salt], the MIC in assay [1] is above 64 µg/mL; in assay [2] (setting [11]), 16 µg/mL; in [3] it was 4 µg/mL; in assay [4] (setting [12]) it was 2 µg/mL; in assay [5], 2 µg/mL; in assay [6] (setting [13]), above 64 µg/mL. For the same compound, the MIC in assay [7] (setting [14]) was found to be 4 µg/mL; in [8] (setting [15]) it was 64 µg/mL; in assay [9] (setting [16]) it was 64 µg/mL.
For the compound `CC(C)C[C@@H]1CCO[C@@H]2[C@H](CN[C@@H]2C(=O)N[C@@H]2C/C=C\[C@@H](CN3CCOCC3)CS[C@H]3O[C@H]2[C@H](O)[C@H](O)[C@H]3O)C1` [FSA1608036, (4S,5aS,8S,8aR)-4-isobutyl-N-((1R,4S,8R,9R,10R,11S,12R,Z)-10,11,12-trihydroxy-4-(morpholinomethyl)-13-oxa-2-thiabicyclo[7.3.1]tridec-5-en-8-yl) octahydro-2H-oxepino[2,3-c]pyrrole-8-carboxamide formate salt], the MIC in assay [1] worked out at 16 µg/mL; in [2] (setting [11]), 1 µg/mL; in [10], 0.25 µg/mL; in assay [4] (setting [12]), 1 µg/mL; in assay [5], 1 µg/mL; in assay [6] (setting [13]) it was 8 µg/mL. Moreover, the MIC stood at 0.5 µg/mL in assay [7] (setting [14]), 8 µg/mL in assay [8] (setting [15]) and 16 µg/mL in assay [9] (setting [16]).
In the case of `CC(C)C[C@@H]1CCO[C@@H]2[C@H](CN[C@@H]2C(=O)N[C@@H]2C/C=C\[C@@H](CN3CCCC3)CS[C@H]3O[C@H]2[C@H](O)[C@H](O)[C@H]3O)C1` [FSA1608037, (4S,5aS,8S,8aR)-4-isobutyl-N-((1R,4S,8R,9R,10R,11S,12R,Z)-10,11,12-trihydroxy-4-(pyrrolidin-1-ylmethyl)-13-oxa-2-thiabicyclo[7.3.1]tridec-5-en-8-yl) octahydro-2H-oxepino[2,3-c]pyrrole-8-carboxamide formate salt], the MIC in assay [1] is above 64 µg/mL; in [2] (setting [11]), above 64 µg/mL; in [3], 4 µg/mL; in assay [4] (setting [12]), 16 µg/mL; in assay [5] it was 16 µg/mL; in [6] (setting [13]) it was above 64 µg/mL. In addition, the values for the MIC in assay [7] (setting [14]), in assay [8] (setting [15]) and in assay [9] (setting [16]) were 32 µg/mL, above 64 µg/mL and above 64 µg/mL, respectively.
`CC(C)C[C@@H]1CCO[C@@H]2[C@H](CN[C@@H]2C(=O)N[C@H]2[C@H]3O[C@H](S[C@H](c4cn(-c5ccc(F)cc5)nn4)C/C=C\[C@H]2C)[C@H](O)[C@@H](O)[C@H]3O)C1` [FSA1609037, (4S,5aS,8S,8aR)—N-((1R,3S,7R,8R,9R,10R,11S,12R,Z)-3-(1-(4-fluorophenyl)-1H-1,2,3-triazol-4-yl)-10,11,12-trihydroxy-7-methyl-13-oxa-2-thiabicyclo[7.3.1]tridec-5-en-8-yl)-4-isobutyloctahydro-2H-oxepino[2,3-c]pyrrole-8-carboxamide formate salt]: the MIC came out at 1 µg/mL in assay [2]; 0.5 µg/mL in [3]; 0.5 µg/mL in assay [10]; 0.25 µg/mL in assay [4]; 16 µg/mL in assay [6]; 0.5 µg/mL in assay [7]. For the same compound, the MIC worked out at 1 µg/mL in [8] and 0.5 µg/mL in assay [9].
